Assay results: ChEMBL document CHEMBL1154059, “Synthesis and biological evaluation of novel 4,5-bis(dialkylaminoalkyl)-substituted acridines as potent telomeric G-quadruplex ligands” (Eur J Med Chem, 2009)

What was measured:
[1] = tested on: Nucleic Acid; assay: Binding affinity to human telomeric DNA G-quadruplex assessed as change in melting temperature at 20 uM by FRET assay; assay type: nucleic-acid assay
[2] = tested on: Nucleic Acid; assay: Binding affinity to human telomeric DNA G-quadruplex assessed as change in melting temperature at 10 uM by FRET assay; assay type: nucleic-acid assay
[3] = tested on: Nucleic Acid; assay: Binding affinity to human telomeric DNA G-quadruplex assessed as change in melting temperature at 5 uM by FRET assay; assay type: nucleic-acid assay
[4] = tested on: Nucleic Acid; assay: Binding affinity to human telomeric DNA G-quadruplex assessed as change in melting temperature at 1 uM by FRET assay; assay type: nucleic-acid assay
[5] = molecular target: Telomerase reverse transcriptase (Homo sapiens, UniProt O14746); assay: Inhibition of human telomerase in HT1080 cells by TRAP assay
Sequence of Telomerase reverse transcriptase (O14746 whole entry): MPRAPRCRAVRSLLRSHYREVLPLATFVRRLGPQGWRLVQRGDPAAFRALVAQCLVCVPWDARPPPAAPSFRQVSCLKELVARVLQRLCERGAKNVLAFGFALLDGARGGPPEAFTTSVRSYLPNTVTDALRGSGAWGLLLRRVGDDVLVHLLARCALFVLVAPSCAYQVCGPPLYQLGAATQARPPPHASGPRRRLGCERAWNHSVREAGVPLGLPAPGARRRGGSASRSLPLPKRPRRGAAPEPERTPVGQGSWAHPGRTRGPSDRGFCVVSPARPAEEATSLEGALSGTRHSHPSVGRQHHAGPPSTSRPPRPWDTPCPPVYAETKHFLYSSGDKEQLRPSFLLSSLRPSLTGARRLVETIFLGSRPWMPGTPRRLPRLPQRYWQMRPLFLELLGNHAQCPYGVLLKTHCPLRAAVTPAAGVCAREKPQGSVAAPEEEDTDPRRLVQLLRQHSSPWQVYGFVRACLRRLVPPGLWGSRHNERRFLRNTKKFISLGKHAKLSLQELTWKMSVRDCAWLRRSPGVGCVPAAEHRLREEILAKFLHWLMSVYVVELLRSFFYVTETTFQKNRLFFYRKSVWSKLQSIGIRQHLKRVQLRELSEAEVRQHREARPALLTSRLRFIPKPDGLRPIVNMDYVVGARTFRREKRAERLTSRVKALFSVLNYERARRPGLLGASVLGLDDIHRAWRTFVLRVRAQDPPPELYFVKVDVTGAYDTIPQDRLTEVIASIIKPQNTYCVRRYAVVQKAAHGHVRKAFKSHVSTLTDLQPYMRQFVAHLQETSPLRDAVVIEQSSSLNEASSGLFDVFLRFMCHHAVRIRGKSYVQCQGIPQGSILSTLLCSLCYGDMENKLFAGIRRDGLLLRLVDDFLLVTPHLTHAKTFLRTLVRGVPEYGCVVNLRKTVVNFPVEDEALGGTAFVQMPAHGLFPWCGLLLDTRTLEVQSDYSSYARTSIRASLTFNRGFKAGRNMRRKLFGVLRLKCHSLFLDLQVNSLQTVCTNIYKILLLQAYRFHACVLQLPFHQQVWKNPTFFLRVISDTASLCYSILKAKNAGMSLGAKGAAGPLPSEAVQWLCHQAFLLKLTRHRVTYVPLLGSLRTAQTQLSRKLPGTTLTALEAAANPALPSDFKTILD

SMILES	ΔTm [1] [°C]	ΔTm [2] [°C]	ΔTm [3] [°C]	ΔTm [4] [°C]	IC50 [5] [µM]
O=C(CCCN1CCCCC1)NCc1cccc2cc3cccc(CNC(=O)CCCN4CCCCC4)c3nc12	10.2	8.1	3.7	1.3	12
O=C(CCN1CCCC1)NCc1cccc2cc3cccc(CNC(=O)CCN4CCCC4)c3nc12	7.6	4.3	2.8	0	6
O=C(CCN1CCCCC1)NCc1cccc2cc3cccc(CNC(=O)CCN4CCCCC4)c3nc12	10.4	7.3	6.6	2.2	> 30
O=C(CN1CCCCC1)NCc1cccc2cc3cccc(CNC(=O)CN4CCCCC4)c3nc12	14.6		0.6	0	
C[N+]1(CC(=O)NCc2cccc3cc4cccc(CNC(=O)C[N+]5(C)CCCC5)c4nc23)CCCC1	9.8	7.4	4.3	0.3	27
CN(C)c1ccc(Nc2c3ccc(NC(=O)CCN4CCCC4)cc3nc3cc(NC(=O)CCN4CCCC4)ccc23)cc1		41.1	34.7	29.1	0.09
CN(C)CC(=O)NCc1cccc2cc3cccc(CNC(=O)CN(C)C)c3nc12	3.6				> 30
C[N+]1(CC(=O)NCc2cccc3cc4cccc(CNC(=O)C[N+]5(C)CCCCC5)c4nc23)CCCCC1	12.6	8.8	6.8	2.6	30
O=C(CN1CCCC1)NCc1cccc2cc3cccc(CNC(=O)CN4CCCC4)c3nc12	2.6		1.4		> 30
C[N+](C)(C)CC(=O)NCc1cccc2cc3cccc(CNC(=O)C[N+](C)(C)C)c3nc12	16.7		5.9		7.3
C[N+](C)(C)CCC(=O)NCc1cccc2cc3cccc(CNC(=O)CC[N+](C)(C)C)c3nc12	11	8.2	5.7	2.1	3
CN1CCN(CCC(=O)NCc2cccc3cc4cccc(CNC(=O)CCN5CCN(C)CC5)c4nc23)CC1	4.6	2.6	0.5	0	> 30
CN(C)CCNCc1cccc2cc3cccc(CNCCN(C)C)c3nc12	10.2		4		5.6
CN(C)CCCNCc1cccc2cc3cccc(CNCCCN(C)C)c3nc12	17.7		6.7		0.15
c1ccc(CNCc2cccc3cc4cccc(CNCc5ccccc5)c4nc23)cc1	4.8				

Next, values leading:

ΔTm [1] [°C]	ΔTm [2] [°C]	ΔTm [3] [°C]	ΔTm [4] [°C]	IC50 [5] [µM]	SMILES
0					c1cnc(NCc2cccc3cc4cccc(CNc5ncccn5)c4nc23)nc1
16.4	11.9	8.8	3	13	O=C(CCCN1CCCC1)NCc1cccc2cc3cccc(CNC(=O)CCCN4CCCC4)c3nc12
2.4					CCN(CC)CC(=O)NCc1cccc2cc3cccc(CNC(=O)CN(CC)CC)c3nc12
8.1		5		> 30	CN(C)CCC(=O)NCc1cccc2cc3cccc(CNC(=O)CCN(C)C)c3nc12
10.7	9.1	7.2	2.6		CCN(CC)CCC(=O)NCc1cccc2cc3cccc(CNC(=O)CCN(CC)CC)c3nc12
7.3			0	> 30	NCc1cccc2cc3cccc(CN)c3nc12
12.6	8.7	6.8	2.3	4	C[N+]1(CCC(=O)NCc2cccc3cc4cccc(CNC(=O)CC[N+]5(C)CCCC5)c4nc23)CCCC1
